Values quoted from earlier work, collected in patent US7696365B2 (Chugai Seiyaku Kabushiki Kaisha, priority 2003, dated 2010).

Legend:
[1] = system: muscle (M) isoform of CPT-I; settings: read-out: IC50 of malonyl-CoA inhibition, muscle isoform
[2] = system: human breast cancer cells

IC50 [1] [nM] | Structure (SMILES) | malonyl-CoA level ([2]; breast carcinoma cells) | antitumor activity ([2]; human breast cancer cells and xenografts)
30 | CC(C)(COP(=O)(O)OP(=O)(O)OC[C@H]1O[C@@H](n2cnc3c(N)ncnc32)[C@H](O)[C@@H]1OP(=O)(O)O)[C@@H](O)C(=O)NCCC(=O)NCCSC(=O)CC(=O)O [malonyl-CoA, Malonyl-CoA] | – | –
– | CCCCCCCCCCCCCCOc1ccc(C(=O)O)o1 [TOFA, 5-(tetradecyloxy)-2-furoic acid] | 60 % of the control | does not show any antitumor activity
